According to patent publication US20210244704A1, “Cabazitaxel in mCRPC Patients Previously Treated with Docetaxel and Who Failed a Prior androgen signaling targeted inhibitor Agent” (SANOFI MATURE IP, priority 2019, published 2021):
Marks after values point to notes of the source that are not given here.

How the values were obtained:
[1] = system: mCRPC patients, safety population; test: Same clinical study: safety (adverse events, laboratory abnormalities, dose reductions); format: in vivo, human
Protocol: For patients in Arm A, cabazitaxel 25 mg/m^2 was administered intravenously over 1 hour every 3 weeks along with oral prednisone 10 mg given daily. Primary prophylactic granulocyte-colony stimulating factor (G-CSF) was required at each cycle for all patients in the cabazitaxel arm
For patients in Arm B, abiraterone acetate was administered orally at 1000 mg once daily along with oral prednisone 5 mg given twice daily or enzalutamide was administered orally at 160 mg once daily continuously. Abiraterone acetate was administered to patients who had received enzalutamide prior to study entry. Enzalutamide was administered to patients who received prior abiraterone acetate.
Cabazitaxel 25 mg/m^2, was administered intravenously over 1 hour every 3 weeks with oral prednisone 10 mg daily. Premedication included an antihistamine, glucocorticoid (dexamethasone 8 mg or equivalent), and histamine 2 receptor antagonist. Antiemetic prophylaxis was administered at physician's discretion. Primary prophylactic granulocyte-colony stimulating factor was required during each cycle of cabazitaxel. Patients received either abiraterone acetate (1000 mg orally once daily and oral prednisone 5 mg twice daily) or enzalutamide (160 mg orally once daily) continuously. A treatment cycle was 3 weeks in both arms. Abiraterone acetate was given to patients who previously received enzalutamide before study entry. Enzalutamide was given to patients who previously received abiraterone acetate.
Up to a maximum of 2 dose reductions was allowed per patient when necessary due to toxicity and according to the table below:
(§1) Efficacy analysis used all randomized patients. Stratified log-rank tests were used to analyze time-to-event data. The primary analysis compared radiographic progression-free survival between the two treatment groups using a stratified log-rank test. Survival curves were generated using Kaplan-Meier estimates. Hazard ratios and associated 95% confidence intervals [CI] were estimated using a stratified Cox proportional hazards model. Stratified Cochran-Mantel-Haenszel chi-square tests were used to analyze categorical data. Descriptive statistics were used to summarize patient characteristics. The safety population (randomized patients who received at least one dose of study treatment) was used for all safety analyses.

pain in mCRPC patients = test: Same clinical study: pain response and pain progression (BPI-SF); format: in vivo, human; conditions: for Pain progression, HR: cabazitaxel vs abiraterone or enzalutamide
Protocol: Pain response (PR): was measured using the Brief Pain Inventory-Short Form for pain intensity score and defined as a decrease by >30% from baseline in the Brief Pain Inventory-Short Form pain intensity item scores observed at two consecutive evaluations weeks apart without an increase in analgesic usage score.
Pain response was defined as a decrease≥30% from baseline in BPI-SF pain intensity score with no increased analgesic use. HRQL was assessed using the Functional Assessment of Cancer Therapy-Prostate (FACT-P) questionnaire. Pain intensity was defined using item 3 of the validated Brief Pain Inventory-Short Form (BPI-SF), which rates pain at its worst in the last 24 hours on a scale of 0 (no pain) to 10 (worst imaginable pain). Analgesic consumption was reported by local investigators and coded by the World Health Organization's analgesic ladder (0=no analgesic; 1=non-opioid analgesics; 2=opioid analgesics for moderate pain; 3=opioids for severe pain). […] A clinically meaningful improvement or deterioration of total FACT-P score was defined as a difference of ±10 points from baseline. Clinically meaningful changes in HRQL and pain response were confirmed at two consecutive evaluations≥3 weeks apart during the on-treatment period. Survival curves were generated by Kaplan-Meier estimates.
as §1

[2] = system: patients with mCRPC who progressed during or after docetaxel; conditions: every 3 weeks with prednisone 10 mg daily; cabazitaxel 25 mg/m^2, mitoxantrone 12 mg/m^2; cited from earlier work
[3] = human, in vivo, listed as cabazitaxel

## CO[C@H]1C(=O)[C@]2(C)[C@@H](OC)C[C@H]3OC[C@@]3(OC(C)=O)[C@H]2[C@H](OC(=O)c2ccccc2)[C@]2(O)C[C@H](OC(=O)[C@H](O)[C@@H](NC(=O)OC(C)(C)C)c3ccccc3)C(C)=C1C2(C)C [Cabazitaxel, 4α-acetoxy-2α-benzoyloxy-5β,20-epoxy-1p-hydroxy-7β,10β-dimethoxy-9-oxo-11-taxen-13α-yl (2R,3S)-3-tert-butoxycarbonylamino-2-hydroxy-3-phenylpropionate]
[1]
  Grade ≥3 neutropenia, measured at nadir by blood test: 55 patients
[1]; All grades
  Anemia (laboratory abnormality): (99.2) %
  Constipation: 19 n
  Hematuria: 19 n
  Hypokalemia (laboratory abnormality): (12.0) %
  Leukopenia (laboratory abnormality): (74.4) %
  Thrombocytopenia (laboratory abnormality): (40.8) %
[1]; Grade ≥3
  Alopecia: 0 n
  Anemia (laboratory abnormality): (8.0) %
  Arthralgia: 0 n
  Asthenia/fatigue: 4.0%
  Bladder and urethral symptoms: 0 n
  Cardiac disorders: 0.8%
  Constipation: 0 n
  Diarrhea: 3.2%
  Dysgeusia: 0 n
  Dyspnea: 0 n
  Febrile neutropenia: 3.2%
  Hypokalemia (laboratory abnormality): (0.8) %
  Leukopenia (laboratory abnormality): (32.0) %
  Musculoskeletal pain/discomfort: 1.6%
  Nausea/vomiting: 0 n
  Peripheral edema: 0 n
  Peripheral neuropathy: 3.2%
  Psychiatric disorders: 0 n
  Renal disorders: 3.2%
  Spinal cord and nerve root disorders: 2.4%
  Stomatitis: 0 n
  Thrombocytopenia (laboratory abnormality): (3.2) %
  Weight decreased: 0 n
[1]; human, in vivo
  Grade 5 adverse events related to bronchial aspiration: one
  Grade 5 adverse events related to general health deterioration due to progressive disease: two
  Grade 5 adverse events related to head injury: one
  Grade 5 adverse events related to infections: two
  Grade 5 adverse events related to spinal cord compression: one
  Nail disorders: no nail disorders were reported
[1]; [3]
  Any adverse event leading to permanent treatment discontinuation: 19.8%
  Any adverse events: 98.4%
  Any grade ≥3 adverse events: 56.3%
  Any serious adverse events: 38.9%
[1]; ≥70 vs <70 years
  Grade ≥3 adverse events occurring more frequently in patients ≥70 years of age: asthenia, diarrhea and febrile neutropenia
Pain in mCRPC patients; 3 months
  Pain (BPI-SF), Kaplan-Meier probability of no deterioration at 3 months: 87.8
Pain in mCRPC patients; 12 months
  Probability of not having pain progression after 12 months: 66.2%
Pain in mCRPC patients
  Pain progression, HR: 0.55*
Pain in mCRPC patients; listed as cabazitaxel
  Pain progression, HR: 0.55
Pain in mCRPC patients; evaluable 111 and 109
  Patients with a confirmed pain response: 50 n
Pain in mCRPC patients; evaluable patients, listed as cabazitaxel
  Patients with a confirmed pain response: 45.0%
Pain in mCRPC patients; human, in vivo
  Median time to pain progression (BPI-SF): NE (NE-NE)
  Pain (BPI-SF) deterioration events: 22.5%
  Pain (BPI-SF) deterioration events, n/nT: 25/111
Pain in mCRPC patients; [3]
  Median time to pain progression (BPI-SF): not reached
[2]
  Median overall survival, TROPIC trial: 15.1 months
